Laboratory results: patent US20080293699A1, “Inhibitors of thapsigargin-induced cell death” (priority 2007, published 2008)
pIC50: −log10 of the molar value. Entries after “also recorded” stand apart in the source; their conditions may differ.

What was measured:
[1] = test system: primary mouse neuronal cells; assay: Thapsigargin-induced death of primary mouse neuronal cells, immunostaining and microscopy; type: cell-based; conditions: 25 μM, two hours before thapsigargin for 24 hours
Protocol: (§1) Primary cortical neuron cells were prepared from the […] of mice. After 14 days of maturation, the cells were preincubated with DMSO (0.2%) or 25 μM of compound 6239507 for two hours. The cells were then treated with thapsigargin (TG) for 24 hours. Cells were fixed with an aldehyde solution and subjected to immunostaining with NeuN and MAP2 antibody for staining the neuronal body and axon network. Hoechst dye was used to stain nuclei. To show the loss of the axon network by thapsigargin, a wide field was captured by fluorescent microscopy. Cells showing a condensed nucleus and shrunken neuritis were considered as dead to evaluate cell death.
as §1, with “Fluorescent microscopy was used to” for “To”, “thapsigargin.” for “thapsigargin, a wide field was captured by fluorescent microscopy.”

[2] = test system: PC12 rat pheochromocytoma cells; assay: Thapsigargin-induced death of PC12 cells (undifferentiated and differentiated), ATP content assay; type: cell-based; set-up: key to Cytoprotective activity, PC12 (Result): +indicates >50% rescue of cell viability relative to untreated cells not exposed to thapsigargin at compound concentration of ≦25 μM; E indicates compound enhanced thapsigargin-induced death
Protocol: In addition to CSM14.1 cells, when tested at 25 μM, Compound 5962123 protected by >50% against thapsigargin-induced death of several tumor cell lines (HeLa human cervical cancer, SW1 melanoma cell, PPC1, human prostate cancer), mouse neural stem cell C17.2 (both differentiated [neuronal phenotype] and non-differentiated [stem cell phenotype]) as determined by ATP content assay, and primary rat cortical neurons as determined by microscopy assay measuring the percentage of NeuN-immunopositive cells with either normal or apoptotic nuclear morphology (Hoechst dye staining).
For PC12, cells were stimulated with 20 ng/ml NGF for five days; for C17.2, cells were stimulated with serum reduction, and 1% N2 incubation for three days; for CSM14.1, cells were cultured at 39° C. for 5-7 days.

[3] = test system: CSM14.1 cells; assay: Tunicamycin-induced cell death of CSM14.1 cells; type: cell-based, rat
Protocol: CSM 14.1 cells were plated at a density of 3×10^3 cells/well in 96-well plates and incubated overnight. Cells were pre-incubated with 25 μM of each compound or 100 μM salubrinal for two hours, followed by […] tunicamycin treatment. 72 hours later, cell death rates were measured by flow cytometry analysis. Annexin V-negative population was considered as survivors. In FIG. 13, the white column represents 0.5% DMSO control showing 24% of survival, and the gray column 100 μM salubrinal. Black columns are data from each compound (25 μM) (compound numbers refer to the compounds in Table 9).
For the experiments shown in FIG. 18, undifferentiated CSM 14.1 cells were plated at 3,000 cells per well in 96-well plates (for the ATP assay) or at 1×10^4 cells per well in 24-well plates (for flow cytometry). The next day, cells were treated with DMSO (0.5%) or hit compounds 25 μM of a compound with 0.5% DMSO final concentration) for two hours, followed by treatment with various cell death-inducing reagents, including 15 μM Thapsigargin (TG) for 24 hrs, 10 μg/mL tunicamycin (TU) for 72 hrs, 2.5 μM staurosporine (STS) for 24 hrs, 50 μM VP16 for 48 hrs, or 30 ng/mL TNF plus 10 μg/mL cyclohexamide (CHX) for 24 hrs. Cellular ATP content was measured for staurosporine samples and TNF/CHX samples, normalizing data relative to cells treated with DMSO alone (the control) and presenting as a percentage of control. For measuring cell death resulting from treatment with tunicamycin and VP16, flow cytometry was used. All assays were performed in triplicate (mean ±SD).

[4] = test system: CHOP; assay: Thapsigargin-induced expression of CHOP; type: cell-based, rat; conditions: listed as CID-2878746
Protocol: CSM 14.1 cells were cultured with DMSO or with 25 μM of hit compounds for two hours followed by treatment with thapsigargin (15 μM). Cell lysates were prepared and analyzed by SDS-PAGE/immunoblotting using antibodies specific for: c-Jun, phosphor-c-Jun (ser 73), eIF2a, phosphor-eIF2a (ser 51), p38 MAPK, phosphor-p38 MAPK (Thr180/Tyr182), ATF-6, CHOP and tubulin (loading control). ER stress-induced activation of C-Jun and p38 MAPK is suppressed by the 11 hit compounds.

| SMILES | Inhibition of ER stress-induced cell death in primary mouse neuronal cells [1] | Protection of PC12 cells from thapsigargin-induced cell death ([2]; 25 μM, undifferentiated or differentiated as stated, ATP content assay) | Effect on thapsigargin-treated undifferentiated PC12 cells ([2]; undifferentiated PC12) | Cytoprotective activity, PC12 (Result) ([2]; undifferentiated, thapsigargin 15 μM, ATP content, compound ≦25 μM) | Inhibition of tunicamycin-induced cell death ([3]; CSM14.1 cells, annexin V flow cytometry where stated) | Cytoprotective activity, stimulus Tunicamycin (Result) ([3]; readout Annexin, CSM 14.1, compound ≦25 μM) | pIC50 ([3]; undifferentiated CSM14.1, ATP content assay, read-out: IC50, inhibition of tunicamycin-induced cell death) | Thapsigargin-induced expression of CHOP [4] |
| --- | --- | --- | --- | --- | --- | --- | --- | --- |
| COc1ccc(C2CC(=O)C3=C(C2)Nc2ccccc2NC3c2cccc(Oc3ccccc3)c2)cc1OC (centres unmarked) [Compound 6239507] | can inhibit | – | – | – | – | – | – | – |
| CCN(CC)c1ccc(C2Nc3ccccc3NC3=C2C(=O)CC(c2ccccc2)C3)cc1 (centres unmarked) [Compound 5962123, 6-(4-diethylaminophenyl)-9-phenyl-5,6,8,9,10,11-hexahydrobenzo[c][1,5]benzodiazepin-7-one] | – | does not protect | paradoxical cell death-promoting activity | E | inhibits; also recorded: confirmed | + (+indicates ≧50% rescue of cell viability relative to untreated cells not exposed to thapsigargin at compound concentration of ≦25 μM) | 5.00 | not inhibited |
